Laboratory results as given in patent US20250288584A1, “COMBINATIONS COMPRISING POSITIVE ALLOSTERIC MODULATORS OR ORTHOSTERIC AGONISTS OF METABOTROPIC GLUTAMATERGIC RECEPTOR SUBTYPE 2 AND THEIR USE” (JANSSEN PHARMACEUTICA NV, priority 2014, published 2025).
Several values for one entry are separate records, joined by “and”; a condition that tells them apart may be missing. Equal entries are not always repeated. Entries after “also recorded” stand apart in the source; their conditions may differ.

Tests used:
[1] = tested on: 6 Hz (44 mA) psychomotor seizures; experiment: 6 Hz psychomotor seizure test, 44 mA (alone, combination with LEV, isobolographic study); assay type: in vivo, mice
Procedure, shortened: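 Mice dosed s.c. or p.o. at 0.01 mL/g, alone or with LEV at fixed dose ratios proportional to ED50 values. Focal seizures induced by corneal stimulation (6 Hz, 0.2 msec pulse, 3 sec, 44 mA); animals without stun, forelimb clonus, vibrissae twitch or Straub-tail were counted as protected. ED50 values derived, with combinations analysed isobolographically.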

[2] = Minimal motor impairment (rotarod); assay type: in vivo, mice

C[C@H](Oc1ccc(F)cc1F)c1ccn2c(CC3CC3)nnc2c1C(F)(F)F [Co. No. 6-b, 3-(Cyclopropylmethyl)-7-[(1S)-1-(2,4-difluorophenoxy)ethyl]-8-(trifluoromethyl)[1,2,4]triazolo[4,3-a]pyridine]
activity when administered alone ([1]; 10 mg/kg p.o.): did not protect; also recorded: Co. No. 6-b 10 mg/kg, not active when administered alone
responders at 10 mg/kg ([1]; Mus musculus, po, 0.5 h, 10 mg/kg p.o., 0.5 h, read-out: # protected/# tested (converted)): 0%
responders at 15 mg/kg ([1]; Mus musculus, po, 0.5 h, 15 mg/kg p.o., 0.5 h, read-out: # protected/# tested (converted)): 50%
responders at 20 mg/kg ([1]; Mus musculus, po, 0.5 h, 20 mg/kg p.o., 0.5 h, read-out: # protected/# tested (converted)): 75%
responders at 40 mg/kg ([1]; Mus musculus, po, 0.5 h, 40 mg/kg p.o., 0.5 h, read-out: # protected/# tested (converted)): 100%
ED50 ([1]; Mus musculus, po, 0.5 h, p.o., 0.5 h TPE, read-out: ED50 (95% CI) 44 mA): 16.1 mg/kg
ED50 (95% CI) 44 mA ([1]; p.o., 0.5 h TPE): 16.1 (13.0-20.1) mg/kg
# rotarod motor impairment/# tested ([2]; 2.5 mg/kg p.o., 0.5 h, 32 mA group): 0/8
# rotarod motor impairment/# tested ([2]; 5 mg/kg p.o., 0.5 h, 32 mA group): 0/8
# rotarod motor impairment/# tested ([2]; 10 mg/kg p.o., 0.25 h, 32 mA group): 0/4
# rotarod motor impairment/# tested ([2]; 10 mg/kg p.o., 0.5 h, 32 mA group): 0/4 and 0/8
# rotarod motor impairment/# tested ([2]; 10 mg/kg p.o., 0.5 h, 44 mA group): 0/8
# rotarod motor impairment/# tested ([2]; 10 mg/kg p.o., 1 h, 32 mA group): 0/4
# rotarod motor impairment/# tested ([2]; 10 mg/kg p.o., 2 h, 32 mA group): 0/4
# rotarod motor impairment/# tested ([2]; 10 mg/kg p.o., 4 h, 32 mA group): 0/4
# rotarod motor impairment/# tested ([2]; 15 mg/kg p.o., 0.5 h, 44 mA group): 0/8
# rotarod motor impairment/# tested ([2]; 20 mg/kg p.o., 0.25 h, 32 mA group): 0/4
# rotarod motor impairment/# tested ([2]; 20 mg/kg p.o., 0.5 h, 32 mA group): 0/4 and 0/8
# rotarod motor impairment/# tested ([2]; 20 mg/kg p.o., 0.5 h, 44 mA group): 0/8
# rotarod motor impairment/# tested ([2]; 20 mg/kg p.o., 1 h, 32 mA group): 0/4
# rotarod motor impairment/# tested ([2]; 20 mg/kg p.o., 2 h, 32 mA group): 0/4
# rotarod motor impairment/# tested ([2]; 20 mg/kg p.o., 4 h, 32 mA group): 0/4
# rotarod motor impairment/# tested ([2]; 40 mg/kg p.o., 0.5 h, 44 mA group): 0/8
